One data set concerns Staphylococcus aureus. Put plainly: Antibacterial activity against Staphylococcus aureus ATCC 25923 assessed as reduction in GFP expression at 1 to 4 times MIC measured after 1 hr by fluorescence microscopy based analysis. Type of data set: functional, organism-based.
The nature of data set [1]: AUC (0 to t) in mouse at 5 mg/kg, iv measured after 8 hrs. Type of data set: ADME, organism-based. Conditions: in vivo.

Activity calls are given as the source filed them. The rule behind the calls is not given here.

As for `C=C[C@]1(C)C[C@@H](OC(=O)CSc2cc(=O)oc3cc(OC)ccc23)[C@]2(C)[C@H](C)CC[C@]3(CCC(=O)[C@H]32)[C@@H](C)[C@@H]1O`, in the data set on Staphylococcus aureus, the outcome was Active. The AUCt in data set [1] stood at 1740 ng·h/mL.
